Non-standard residues stand in square brackets, D forms with d. Residues, ends and D or L forms follow the SMILES beside them. hArg = N=C(N)NCCCC[C@H](N)C(=O)O; Ac5c = NC1(C(=O)O)CCCC1; Aib = CC(C)(N)C(=O)O
Biological target: T1, P1R (recombinant P1R chimera) in HKRK-B28 cells (UniProt P25107+P25961, A364S/A509S/A517P/A524T/DEL519-521/E344G/G506A/H528S/I365V/I416T/I429T/K402R/K465R/L320I/M408V/N352H/S511P/S523T/T335G/T421L/T487S/V367L/V433I)
T1 construct: the opposum P1R from the N-terminus to the mid region of TM3; the rat P1R from the mid region of TM3 to the C-terminus; expressed in transfected cells
Assay: biochemical
Format: binding, opposum/rat chimera
Conditions: B28 cells
From the text: Cell Culture. The cell line HKRK-B28 (Takasu, H., et al., J. Bone Miner. Res. 14:11-20 (1999)) was derived from the porcine kidney cell line, LLC-PK1 by stable transfection with plasmid DNA encoding a recombinant P1R chimera comprised of the opposum P1R from the N-terminus to the mid region of TM3 and the rat P1R from the mid region of TM3 to the C-terminus. The surface density of the P1R in these cells is ˜280,000 receptors per cell. The clonal cell line LdelNt-2 was derived from LLC-PK, cells via stable transfection with a plasmid encoding P1R-delNt, a recombinant human PTH-1 receptor construct in which most of the amino-terminal extracellular domain is deleted. These cells, as well as COS-7 cells and SaOS-2-B10 cells, were cultured at […] in T-75 flasks ([…]) in Dulbecco's modified Eagle's medium (DMEM) supplemented with fetal bovine serum (10%), penicillin G (20 units/ml), streptomycin sulfate (20 μg/ml) and amphotericin B (0.05 μg/ml) in a humidified atmosphere containing 5% CO2. Stock solutions of EGTA/trypsin and antibiotics were from GLBCO; fetal bovine serum was from Hyclone Laboratories (Logan, Utah). COS-7 cells sub-cultured in 24-well plates were transfected with plasmid DNA (200 ng per well) encoding the wild-type human P1R or truncated human P1R deleted for residues (24-181) (Shimizu, M., et al., J. Biol. Chem. 275:21836-21843 (2000)) that was purified by cesium chloride/ethidium bromide density gradient centrifugation, and FuGENE 6 transfection reagent (Roche Indianapolis Ind.) according to the manufacturer's recommended procedure. All cells, in 24-well plates, were treated with fresh media and shifted to 33° C. for 12 to 24 h prior to assay.
Competition Binding. Binding reactions were performed with HKRK-B28 cells or in COS-7 cells in 24-well plates. The cells were rinsed with 0.5 mL of binding buffer, and then treated successively with 100 μL binding buffer, 100 μL of binding buffer containing various amounts of unlabeled competitor ligand, and 100 μL of binding buffer containing ca. 100,000 cpm of ^125I-[Aib^1,3,Nle^8,Gln^10,Har^11,Ala^12,Trp^14,Arg^19,Tyr^21]rPTH(1-21) (SEQ. ID. NO. 36) (ca. 26 fmol; final volume=300 μL). Incubations were 4 to 6 h at 4° C., at which time near equilibrium conditions were attained. Cells were then placed on ice, the binding medium was removed, and the monolayer was rinsed three times with 0.5 mL of cold binding buffer. The cells were subsequently lysed with 0.5 mL 5N NaOH and counted for radioactivity. For each tracer and in each experiment, the non-specific binding was determined as the radioactivity that bound in the presence of the same unlabeled peptide at a concentration of 1 μM, and was ˜1% of total radioactivity added for each tracer. The maximum specific binding (B0) was the total radioactivity bound in the absence of competing ligand, corrected for nonspecific binding, and for each tracer, ranged from 8% to 20% of the total radioactivity added. Nonlinear regression was used to calculate binding IC50 values (see below). Scatchard transformations of homologous competition binding data derived from studies with 26 fmol of ^125I-[Aib^1,3,Nle^8,Gln^10,Har^11,Ala^12,Trp^14, Arg^19,Tyr^21]rPTH(1-21) (SEQ. ID. NO. 36) were employed for estimations of apparent equilibrium dissociation constant (kDapps) and total number of ligand binding sites (Bmax), assuming a single class of binding sites and equal affinities of the iodinated and non iodinated ligand.
Data Calculation. Calculations were performed using Microsoft® Excel. Nonlinear regression analyses of binding and cAMP dose-response data were performed using the four-parameter equation: yp=Min+[(Max−Min)/(1+(IC50/x)^slope)]. The Excel Solver function was utilized for parameter optimization, as described previously (Carter, P. H., et al., Endocrinology 140: 4972-4981 (1999); Bowen, W. P., and Jerman, J. C., Trends in Pharmacol. Sci. 16: 413-417 (1995)). […]

T1 sequence (P25107+P25961 fused with the stated changes): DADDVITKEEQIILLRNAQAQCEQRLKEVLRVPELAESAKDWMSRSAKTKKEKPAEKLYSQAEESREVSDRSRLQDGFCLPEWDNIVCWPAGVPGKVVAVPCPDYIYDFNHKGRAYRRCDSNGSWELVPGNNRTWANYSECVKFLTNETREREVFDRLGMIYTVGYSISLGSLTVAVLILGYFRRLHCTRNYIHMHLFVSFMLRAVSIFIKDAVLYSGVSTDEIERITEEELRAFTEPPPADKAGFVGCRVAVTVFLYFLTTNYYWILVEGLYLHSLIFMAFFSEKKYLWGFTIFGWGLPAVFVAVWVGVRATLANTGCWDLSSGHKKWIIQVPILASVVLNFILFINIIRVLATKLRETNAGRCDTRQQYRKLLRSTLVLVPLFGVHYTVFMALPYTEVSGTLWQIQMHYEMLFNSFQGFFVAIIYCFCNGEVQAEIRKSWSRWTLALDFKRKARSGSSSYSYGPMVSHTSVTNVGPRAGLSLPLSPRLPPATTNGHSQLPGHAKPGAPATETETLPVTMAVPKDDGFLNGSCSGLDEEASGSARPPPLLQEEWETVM

CC[C@H](C)[C@H](NC(=O)[C@H](CCC(=O)O)NC(=O)C(C)(C)NC(=O)[C@@H](NC(=O)C1(N)CCCC1)C(C)C)C(=O)N[C@@H](CCC(N)=O)C(=O)N[C@@H](CC(C)C)C(=O)N[C@@H](CCSC)C(=O)N[C@@H](Cc1c[nH]cn1)C(=O)N[C@@H](CCC(N)=O)C(=O)N[C@@H](CCCCNC(=N)N)C(=O)N[C@@H](C)C(=O)N[C@@H](CCCCN)C(=O)N[C@@H](Cc1c[nH]c2ccccc12)C(N)=O [[Ac5c^1,Aib^3,M]PTH(1-14), [Ac5c^1,Aib^3,Gln^10,Har^11,Ala^12,Trp^14]PTH(1-14)NH2] (H-[Ac5c]V[Aib]EIQLMHQ[hArg]AKW-NH2)
potency for inhibiting tracer binding relative to [Aib1,3,M]PTH(1-14): 2 fold

Reference: US7795220B2, “Conformationally constrained parathyroid hormones with alpha-helix stabilizers” (The General Hospital Corporation, priority 2003, dated 2010)
